Source: patent US20250320274A1, “RECOMBINANT HUMAN COLLAGEN AND METHOD FOR BUILDING SAME” (NANTONG UNIVERSITY, priority 2020, published 2025)
No end group written: not given here.

Experiment: water solubility test
Format: physicochemical
Settings: 32 mg in 8 ml of water, directly without stirring

GPAGARGNDGATGAAGPPGPTGPAGPPGFP
water solubility: clear solution with no color, no precipitation, and no floating matter
